Measured values published in patent publication US6369096B1, “Benzyloxy prodigiosine compounds” (Pharmacia & Upjohn S.p.A., priority 1998, dated 2002).
Read-outs that look alike come from different tables or passages of the source.

Tests used:
[1] = test system: female C57 Bl/6 mice primed and challenged with sheep red blood cells (SRBC); experiment: DTH (Delayed-Type Hypersensitivity) assay; assay type: in vivo; settings: given daily for six days, dose reducing footpad thickness increase by 30% vs controls
Description: The immunosuppressive activity of the compounds of the invention was evaluated in vivo by DTH (Delayed-Type Hypersensitivity) assay. According to the test, sheep red blood cells (SRBC) (1×10^5 cells) suspended in 500 mcL saline, were injected i.v. into the tail vein of female C57 Bl/6 mice (8-9 week old). Five days later 1×10^8 SRBC suspended in 50 mcL saline were injected into the left hind footpad. The increase in footpad thickness was measured with a dial micrometer 24 h after challenge. The test compounds were given daily for six days at different doses starting on the day of priming. Activity was expressed as ED30 (dose able to reduce by 30% the thickness increase compared to controls).

[2] = In vivo bioavailability evaluation (pharmacokinetics and oral bioavailability); settings: 10 mg/kg, male Lewis rat, iv 1 mg salt/kg, oral 10 mg salt/kg, read-out: F % (bioavailability)
Description: Aim of the study is to determine the pharmacokinetics and the oral bioavailability of the instant prodigiosine compounds in rats.
Species/strain/sex: rat/Lewis/male
No. formulations: 1 oral; 1 intravenous
No. animals/formulation: 3+2 controls (+an ulterior rat treated with the iv formulation); total 9
Dosages: iv: 1 mg salt/kg; oral: 10 mg salt/kg
Vehicles: iv: a solution at the conc. of 5 mg/ml in PEG 400/Tween 80 (6:1 v:v) was prepared, then diluted with dextrose at the final concentration of 0.5 mg/ml; oral: a solution at the concentration of 5 mg/ml in Cremophor ELP/EtOH abs (6.5:3.5 v:v) was prepared, then diluted with saline at the final concentration of 1 mg/ml
Experimental: Three cannulated rats/formulation were treated. One rat/formulation was only treated with the vehicle, as basal sample. The intravenous administration was given into the caudal vein as bolus; the oral administration by gastric gavage as solution. […] Plasma was immediately obtained by centrifugation (10000 rpm for 3 min) and stored in labelled tubes at −30° C. till analysis.
Analytical assay: the extraction of the compounds was performed by protein precipitation by adding 100 mcl of acetonitrile to 25 mcl of plasma. The concentrations of the compounds (as free bases) in plasma were determined by LC-MS method. Column: APEX CN RP 5 mc, 10×4 mm (Jones chromatography); mobil phase: 70% acetonitrile/30% 1 mM ammonium formate +0.01% triethylamine adjusted to pH 2.0 with formic acid; flow rate: 1 ml/min; injection volume: 10 mcL; oven temperature: 45° C.; MS detection by APCI using MRM positive ion; MRM transition: 330 m/z>239 m/z, retention time: 1.4 min; LLOQ: 5.03 ng/ml; ULOQ: 10060 ng/ml. Bioavailability is expressed in following Table 1 as F %. ClogP is a lypophylic index, related to octanol/water partition coefficient.

[3] = test system: Th murine cells D10-G4.1 (ATCC TIB 224); experiment: Inhibition of IL-2 proliferation induced activity (3H-TdR uptake); assay type: cell-based; settings: for 3HTdR uptake: mean cpm from triplicate wells, 48 h
Description: The Th murine cells D10-G4.1 (ATCC TIB 224) are IL-2 dependent for their growth. They are cultured in complete RPMI 1640 medium enriched with rhIL-2 (6 ng/ml) and ConA (6 ng/ml). For testing the inhibitory effects of the compounds of the invention on IL-2 activity, D 10 cells are washed twice with complete medium, resuspended at 10^5 cells/ml in the same medium and triplicately distributed (10^4 cells/well) in flat bottomed 96 well plates. […] and […] at different concentrations are simultaneously added to the cells. The cultures are then incubated at 37° C. in a humidified 5% CO2 incubator for 48 h, the last 18 h in the presence of 0.2 µCi of ^3H-TdR. Uptake of 3H-TdR in the cells (cpm) is taken as a measure of cell proliferation.

SMILES	DTH ED30 iv [1]	DTH ED30 os [1]	bioavailability ([2]; plasma)	% inhibition vs vehicle ([3]; 1 ng/ml)	3HTdR uptake ([3]; 1 ng/ml)	% inhibition vs vehicle ([3]; 3 ng/ml)	3HTdR uptake ([3]; 3 ng/ml)	% inhibition vs vehicle ([3]; 10 ng/ml)	3HTdR uptake ([3]; 10 ng/ml)	% inhibition vs vehicle ([3]; 30 ng/ml)	3HTdR uptake ([3]; 30 ng/ml)	bioavailability ([2]; in vivo)
CC1=NC(=Cc2[nH]c(-c3ccc[nH]3)cc2OCc2ccccc2)C=C1.Cl [PNU 168727, 4-benzyloxy-5-[(5-methyl-2H-pyrrol-2-ylidene)methyl]-2,2′-bi-1H-pyrrole, hydrochloride]	1.7 mg/kg	5.3 mg/kg	35%	5%	58245 cpm	11%	54594 cpm	87%	8100 cpm	100%	52 cpm	
CCCCCC1=NC(=Cc2[nH]c(-c3ccc[nH]3)cc2OCc2ccccc2)C=C1.Cl [PNU 169417, 4-benzyloxy-5-[(5-pentyl-2H-pyrrol-2-ylidene)methyl]-2,2′-bi-1H-pyrrole, hydrochloride]	1.1 mg/kg	4.4 mg/kg	18%									
CCCCCCCCCCCC1=NC(=Cc2[nH]c(-c3ccc[nH]3)cc2OCc2ccccc2)C=C1.Cl [PNU 156804, 4-benzyloxy-5-[(5-undecyl-2H-pyrrol-2-ylidene)methyl]-2,2′-bi-1H-pyrrole, hydrochloride, reference compound]	0.44 mg/kg	18.7 mg/kg										7%
